Experiments:
Format in all cases: functional, cell-based
A498 = experiment: Cytotoxicity against human A498 cells after 72 hrs by MTT assay; details: A498, 72 h
ACHN = experiment: Cytotoxicity against human ACHN cells after 72 hrs by MTT assay
[1] = Cytotoxicity against human PANC1 cells after 72 hrs by MTT assay; details: PANC-1, 72 h

SMILES | IC50 (A498) | IC50 (ACHN) | IC50 [1]
C=C(CCC=C(C)C)[C@H](O)[C@@H]1CC(C)=C[C@]2(C=C(CO)[C@H]3CC(=O)C(C)=C[C@H]3O2)O1 | 17.3 µM | > 50 µM | 50 µM
C=C(C)[C@@H](CC/C(C)=C/[C@@H]1CC(C)=C[C@]2(C=C(CO)[C@H]3CC(=O)C(C)=C[C@H]3O2)O1)OO | > 50 µM | > 50 µM | > 50 µM
C=C(CCC1OC1(C)C)[C@H](Br)[C@@H]1CC(C)=C[C@]2(C=C(CO)[C@H]3CC(=O)C(C)=C[C@H]3O2)O1 (stereo not given in full) | 18.7 µM | 24.4 µM | 11.4 µM
CC(C)=CCC/C(C)=C/[C@@H]1CC(C)=C[C@]2(C=C(CO)[C@H]3CC(=O)C(C)=C[C@H]3O2)O1 | 4.4 µM | 3 µM | 13.5 µM
O=c1[nH]cc(F)c(=O)[nH]1 [FLUOROURACIL] |  |  | 50 µM
CCN(CC)CCNC(=O)c1c(C)[nH]c(/C=C2\C(=O)Nc3ccc(F)cc32)c1C [SUNITINIB MALATE] |  | 2 µM | 
CO[C@H]1C[C@@H]2CC[C@@H](C)[C@@](O)(O2)C(=O)C(=O)N2CCCC[C@H]2C(=O)O[C@H]([C@H](C)C[C@@H]2CC[C@@H](OC(=O)C(C)(CO)CO)[C@H](OC)C2)CC(=O)[C@H](C)/C=C(\C)[C@@H](O)[C@@H](OC)C(=O)[C@H](C)C[C@H](C)/C=C/C=C/C=C/1C [TEMSIROLIMUS] | 0.35 µM |  | 
